Measurements: PubChem BioAssay AID1259407 (Chemical Carcinogenesis Research Information System (CCRIS), 2018)
Calls of active or inactive are those of the source. The rule behind the calls is not given here.

Test system: CCRIS mutagenicity, Ames/micronucleus/aberration tests
Assay: CCRIS mutagenicity studies

`O=C(O)C(Cl)Cl` was tested, and the mutagenic call (End Point: IN VITRO CHROMOSOMAL ABERRATIONS, Test System: CHL CELLS, Metabolic Activation: RAT, LIVER, S-9, SODIUM PHENOBARBITAL AND 5,6-BENZOFLAVONE) was “active; positive (structural changes)”, the mutagenic call (End Point: In vivo micronucleus, Test System: Normochromatic erythrocytes, Species: Mouse, Strain/Sex: B6C3F1/Male, Route: Oral) was “inactive; negative” and the mutagenic call (End Point: In vivo micronucleus, Test System: Peripheral blood normochromatic erythrocytes, Species: Mouse, Strain/Sex: B6C3F1/Female, Route: Oral) was “inactive; negative; increase in frequency of micronucleated erythrocytes was judged to be”. The mutagenic call (End Point: In vivo micronucleus, Test System: Peripheral blood normochromatic erythrocytes, Species: Mouse, Strain/Sex: B6.129-TRP53TM1 BRD/Female, Route: Oral) was “inactive; negative”, the mutagenic call (End Point: In vivo micronucleus, Test System: Peripheral blood normochromatic erythrocytes, Species: Mouse, Strain/Sex: B6.129-TRP53TM1 BRD/Male, Route: Oral) was “inactive; negative” and the mutagenic call (End Point: In vivo micronucleus, Test System: Peripheral blood normochromatic erythrocytes, Species: Mouse, Strain/Sex: FVB/N-TgN (v-Ha-ras)Led (Tg.AC) hemizygous/Female, Route: Dermal) was “inactive; negative”. For the same compound, the mutagenic call (End Point: In vivo micronucleus, Test System: Peripheral blood normochromatic erythrocytes, Species: Mouse, Strain/Sex: FVB/N-TgN (v-Ha-ras)Led (Tg.AC) hemizygous/Male, Route: Dermal) was “inactive; negative”, the mutagenic call (End Point: In vivo micronucleus, Test System: Peripheral blood normochromatic erythrocytes, Species: Mouse, Strain/Sex: Tg.AC hemizygous/Female, Route: Oral) was “inactive; negative” and the mutagenic call (End Point: In vivo micronucleus, Test System: Peripheral blood normochromatic erythrocytes, Species: Mouse, Strain/Sex: Tg.AC hemizygous/Male, Route: Oral) was “inactive; negative”. The mutagenic call (Test System: AMES SALMONELLA TYPHIMURIUM, Strain/Indicator: RSJ100, Metabolic Activation: NONE, Method: PREINCUBATION) was “active; positive”, the mutagenic call (Test System: AMES SALMONELLA TYPHIMURIUM, Strain/Indicator: RSJ100, Metabolic Activation: RAT LIVER S-9, Method: PREINCUBATION) was “inactive; negative” and the mutagenic call (Test System: AMES SALMONELLA TYPHIMURIUM, Strain/Indicator: TA98, Metabolic Activation: NONE, Method: STANDARD PLATE) was “inactive; negative”. For the same compound, the mutagenic call (Test System: AMES SALMONELLA TYPHIMURIUM, Strain/Indicator: TA98, Metabolic Activation: RAT LIVER S-9, Method: PREINCUBATION) was “inactive; negative”, the mutagenic call (Test System: AMES SALMONELLA TYPHIMURIUM, Strain/Indicator: TA98, Metabolic Activation: RAT, LIVER, S-9, AROCLOR 1254, Method: STANDARD PLATE) was “inactive; negative” and the mutagenic call (Test System: AMES SALMONELLA TYPHIMURIUM, Strain/Indicator: TA98, Metabolic Activation: RAT, LIVER, S-9, PHENOBARBITAL AND 5,6-BENZOFLAVONE, Method: PREINCUBATION) was “inactive; negative”. For the same compound, the mutagenic call (Test System: AMES SALMONELLA TYPHIMURIUM, Strain/Indicator: TA100, Metabolic Activation: NONE, Method: BAG VAPORIZATION) was “active; positive”, the mutagenic call (Test System: AMES SALMONELLA TYPHIMURIUM, Strain/Indicator: TA100, Metabolic Activation: NONE, Method: FLUCTUATION TEST) was “active; positive” and the mutagenic call (Test System: AMES SALMONELLA TYPHIMURIUM, Strain/Indicator: TA100, Metabolic Activation: NONE, Method: PREINCUBATION) was “active; positive”. For the same compound, the mutagenic call (Test System: AMES SALMONELLA TYPHIMURIUM, Strain/Indicator: TA100, Metabolic Activation: NONE, Method: STANDARD PLATE) was “inactive; negative”, the mutagenic call (Test System: AMES SALMONELLA TYPHIMURIUM, Strain/Indicator: TA100, Metabolic Activation: RAT LIVER S-9, Method: PREINCUBATION) was “active; positive” and the mutagenic call (Test System: AMES SALMONELLA TYPHIMURIUM, Strain/Indicator: TA100, Metabolic Activation: RAT, LIVER, S-9, AROCLOR 1254, Method: BAG VAPORIZATION) was “active; positive”. For the same compound, the mutagenic call (Test System: AMES SALMONELLA TYPHIMURIUM, Strain/Indicator: TA100, Metabolic Activation: RAT, LIVER, S-9, AROCLOR 1254, Method: FLUCTUATION TEST) was “active; positive”, the mutagenic call (Test System: AMES SALMONELLA TYPHIMURIUM, Strain/Indicator: TA100, Metabolic Activation: RAT, LIVER, S-9, AROCLOR 1254, Method: STANDARD PLATE) was “inactive; negative” and the mutagenic call (Test System: AMES SALMONELLA TYPHIMURIUM, Strain/Indicator: TA100, Metabolic Activation: RAT, LIVER, S-9, PHENOBARBITAL AND 5,6-BENZOFLAVONE, Method: PREINCUBATION) was “inactive; negative”. The mutagenic call (Test System: AMES SALMONELLA TYPHIMURIUM, Strain/Indicator: TA102, Metabolic Activation: NONE, Method: STANDARD PLATE) was “inactive; negative”, the mutagenic call (Test System: AMES SALMONELLA TYPHIMURIUM, Strain/Indicator: TA102, Metabolic Activation: RAT LIVER S-9, AROCLOR 1254, Method: STANDARD PLATE) was “inactive; negative” and the mutagenic call (Test System: AMES SALMONELLA TYPHIMURIUM, Strain/Indicator: TA102, Metabolic Activation: RAT, LIVER, S-9, PHENOBARBITAL AND 5,6-BENZOFLAVONE, Method: STANDARD PLATE) was “inactive; negative”. For the same compound, the mutagenic call (Test System: AMES SALMONELLA TYPHIMURIUM, Strain/Indicator: TA1535, Metabolic Activation: NONE, Method: STANDARD PLATE) was “inactive; negative”, the mutagenic call (Test System: AMES SALMONELLA TYPHIMURIUM, Strain/Indicator: TA1535, Metabolic Activation: RAT, LIVER, S-9, AROCLOR 1254, Method: STANDARD PLATE) was “inactive; negative” and the mutagenic call (Test System: AMES SALMONELLA TYPHIMURIUM, Strain/Indicator: TA1537, Metabolic Activation: NONE, Method: STANDARD PLATE) was “inactive; negative”. The mutagenic call (Test System: AMES SALMONELLA TYPHIMURIUM, Strain/Indicator: TA1537, Metabolic Activation: RAT, LIVER, S-9, AROCLOR 1254, Method: STANDARD PLATE) was “inactive; negative”, the mutagenic call (Test System: AMES SALMONELLA TYPHIMURIUM, Strain/Indicator: TA2638, Metabolic Activation: RAT, LIVER, S-9, PHENOBARBITAL AND 5,6-BENZOFLAVONE, Method: STANDARD PLATE) was “inactive; negative” and the mutagenic call (Test System: Ames Salmonella typhimurium, Strain/Indicator: TA98, Metabolic Activation: Hamster, liver, S-9, Aroclor 1254 (30%), Method: Preincubation) was “inactive; negative”. The mutagenic call (Test System: Ames Salmonella typhimurium, Strain/Indicator: TA98, Metabolic Activation: Hamster, liver, S-9, Aroclor 1254, 30%, Method: Preincubation) was “inactive; negative”, the mutagenic call (Test System: Ames Salmonella typhimurium, Strain/Indicator: TA98, Metabolic Activation: Rat, liver, S-9, Aroclor 1254, 30%, Method: Preincubation) was “inactive; negative” and the mutagenic call (Test System: Ames Salmonella typhimurium, Strain/Indicator: TA100, Metabolic Activation: Hamster, liver, S-9, Aroclor 125, 30%, Method: Preincubation) was “inactive; negative”. For the same compound, the mutagenic call (Test System: Ames Salmonella typhimurium, Strain/Indicator: TA100, Metabolic Activation: Hamster, liver, S-9, Aroclor 1254, 30%, Method: Preincubation) was “inactive; negative”, the mutagenic call (Test System: Ames Salmonella typhimurium, Strain/Indicator: TA100, Metabolic Activation: None, Method: Preincubation) was “active; positive” and the mutagenic call (Test System: Ames Salmonella typhimurium, Strain/Indicator: TA100, Metabolic Activation: Rat, liver, S-9, Aroclor 1254, 30%, Method: Preincubation) was “inactive; negative”. For the same compound, the mutagenic call (Test System: Ames Salmonella typhimurium, Strain/Indicator: TA1535, Metabolic Activation: None, Method: Preincubation) was “active; positive, three trials performed; ntp described results as positive, weakly posi”, the mutagenic call (Test System: E. COLI, Strain/Indicator: WP2 (PKM101), Metabolic Activation: RAT, LIVER, S-9, PHENOBARBITAL AND 5,6-BENZOFLAVONE, Method: STANDARD PLATE) was “inactive; negative” and the mutagenic call (Test System: E. COLI, Strain/Indicator: WP2 UVRA (PKM101), Metabolic Activation: RAT, LIVER, S-9, PHENOBARBITAL AND 5,6-BENZOFLAVONE, Method: STANDARD PLATE) was “inactive; negative”. The mutagenic call (Test System: E. COLI, Strain/Indicator: WP2 UVRA, Metabolic Activation: NONE, Method: STANDARD PLATE) was “inactive; negative”, the mutagenic call (Test System: E. COLI, Strain/Indicator: WP2 UVRA, Metabolic Activation: RAT, LIVER, S-9, AROCLOR 1254, Method: STANDARD PLATE) was “inactive; negative” and the mutagenic call (Test System: MOUSE LYMPHOMA, Strain/Indicator: L5178Y (TK+/TK- -3.7.2C), Metabolic Activation: NONE) was “active; positive”. For the same compound, the mutagenic call (Test System: MOUSE LYMPHOMA, Strain/Indicator: L5178Y (TK+/TK-), Metabolic Activation: NONE, Method: SUSPENSION/PLATE) was “inactive; negative” and the mutagenic call (Test System: MOUSE LYMPHOMA, Strain/Indicator: L5187Y (TK+/TK-), Metabolic Activation: RAT, LIVER, S-9, AROCLOR 1254, Method: SUSPENSION/PLATE) was “inactive; negative”.
For `[N-]=[N+]=NCC(=O)O`, the mutagenic call (Test System: AMES SALMONELLA TYPHIMURIUM, Strain/Indicator: TA1530, Metabolic Activation: NONE, Method: STANDARD PLATE) was “inactive; negative”.
